The target in the assay is Phosphatidylinositol 3-kinase catalytic subunit type 3 (Homo sapiens, UniProt Q8NEB9). The assay is described as follows: VPS34 Enzyme Assays: 100 nL compounds in DMSO are added to wells of a 384 well microtitre plate (Greiner 780076). At room temperature: 5 ul VPS34 reaction buffer (Invitrogen Assay Buffer Q (diluted 1 in 5 with nanopure water) plus 2 mM DTT and 2 mM MnCl2) containing ATP (20 uM, Promega) and 200 uM PI-PS substrate (Invitrogen PV5122) is added followed immediately by 5 ul VPS34 reaction buffer (as above) containing VPS34 (5 nM, Millennium Protein Sciences Group) and the mixture is incubated with shaking at room temperature for 1 hour. Then 5 ul VPS34 stop-detect mix (as per Invitrogen Adapta Assay kit (PV5009) instructions (contains kinase quench buffer, TR-FRET buffer, Adapta Eu anti-ADP antibody and Alexa Fluor 647 ADP tracer)) is added to quench the reaction. The plates are then incubated for 30 minutes at room temperature with shaking and then read on a BMG PheraStar Plus reader. Background: TR-FRET usually uses a lanthanide donor and a delayed reading to cut background.

This passage reports IC50 results from ChEMBL document CHEMBL5726383, “Heteroaryls and uses thereof” (2017).

In general, IC50 refers to the concentration at which inhibition is half-maximal.

SMILES strings stand for the structures.

Phosphatidylinositol 3-kinase catalytic subunit type 3, sequence (Q8NEB9 whole entry): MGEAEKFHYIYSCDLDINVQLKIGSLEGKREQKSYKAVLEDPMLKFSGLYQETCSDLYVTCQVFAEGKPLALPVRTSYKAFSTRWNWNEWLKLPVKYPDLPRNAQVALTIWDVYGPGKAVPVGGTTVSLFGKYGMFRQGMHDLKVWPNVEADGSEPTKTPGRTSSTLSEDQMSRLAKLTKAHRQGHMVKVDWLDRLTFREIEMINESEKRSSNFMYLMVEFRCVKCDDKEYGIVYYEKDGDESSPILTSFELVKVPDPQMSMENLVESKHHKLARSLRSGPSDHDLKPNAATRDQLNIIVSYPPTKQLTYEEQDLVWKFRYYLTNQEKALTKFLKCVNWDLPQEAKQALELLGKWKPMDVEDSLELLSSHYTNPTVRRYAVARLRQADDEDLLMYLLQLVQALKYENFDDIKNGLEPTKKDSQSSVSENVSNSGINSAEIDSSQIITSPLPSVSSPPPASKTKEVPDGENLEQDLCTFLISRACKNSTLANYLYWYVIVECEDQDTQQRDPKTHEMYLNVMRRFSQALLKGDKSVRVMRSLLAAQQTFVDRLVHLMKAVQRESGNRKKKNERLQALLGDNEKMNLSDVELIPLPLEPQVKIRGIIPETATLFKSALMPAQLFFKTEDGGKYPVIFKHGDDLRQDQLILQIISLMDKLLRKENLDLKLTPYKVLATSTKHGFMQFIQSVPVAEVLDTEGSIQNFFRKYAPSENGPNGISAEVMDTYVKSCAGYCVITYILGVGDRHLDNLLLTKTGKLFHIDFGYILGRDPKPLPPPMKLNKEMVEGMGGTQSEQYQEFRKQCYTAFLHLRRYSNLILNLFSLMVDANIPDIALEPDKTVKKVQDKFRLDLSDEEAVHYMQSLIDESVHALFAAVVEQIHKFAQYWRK

Take `CC(=O)Nc1cc(-c2cnc(C)c(NS(=O)(=O)c3ccc(C)cc3Cl)c2)ccn1`: the IC50 was less than 10 nM.
